According to patent US11026426B2, “Oxadiazole and phenol derivatives as antibacterial and/or herbicidal agents” (NORTHERN ILLINOIS RESEARCH FOUNDATION, priority 2017, dated 2021):

Tests used:
Ec IspD = Ec IspD (Escherichia coli, UniProt Q46893); assay: Thermal shift (DSF) screening against Ec IspD; type: binding
Procedure: The library based screening technique in conjunction with the thermal shift assay was implemented to evaluate compounds from Spectrum collection.
All DSF experiments were performed in 50 mM phosphate buffer at pH 7.4, 150 mM NaCl, 1×SYPRO orange, 2% DMSO and 200 to 1000 nM of the enzyme with a total volume of 25 μL. Final enzyme concentrations used were […] for Ec IspD and 0.5 μM for Bt IspD. Samples were measured on a Bio-Rad iQ5 Real-Time PCR (Bio-Rad Life Sciences) using a temperature range of 25 to 95° C. at a rate of 1° C. per minute with the fluorescence measured every 0.5° C. every 10 seconds with wavelengths of 530 and 570 nm used for excitation and emission, respectively. The melting temperature (Tm value) was determined from the first derivative of the graph of relative fluorescence units vs. temperature.

[1] = molecular target: T1, Mycobacterium tuberculosis IspD (MtIspD) (Mycobacterium tuberculosis, UniProt P9WKG9); assay: Thermal shift assay against MtIspD; type: binding
T1 sequence (P9WKG9 1-231): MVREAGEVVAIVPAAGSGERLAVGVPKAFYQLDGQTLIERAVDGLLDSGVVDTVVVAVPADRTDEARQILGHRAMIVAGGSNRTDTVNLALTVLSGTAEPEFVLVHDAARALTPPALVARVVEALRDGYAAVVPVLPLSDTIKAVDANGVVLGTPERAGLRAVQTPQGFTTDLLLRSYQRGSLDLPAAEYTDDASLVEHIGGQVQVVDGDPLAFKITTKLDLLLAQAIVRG

[2] = molecular target: Lycopersicon esculentum IspE (LeIspE) (Solanum lycopersicum, UniProt P93841); assay: Thermal shift assay against LeIspE; type: binding
Sequence of Lycopersicon esculentum IspE (LeIspE) (P93841 89-401): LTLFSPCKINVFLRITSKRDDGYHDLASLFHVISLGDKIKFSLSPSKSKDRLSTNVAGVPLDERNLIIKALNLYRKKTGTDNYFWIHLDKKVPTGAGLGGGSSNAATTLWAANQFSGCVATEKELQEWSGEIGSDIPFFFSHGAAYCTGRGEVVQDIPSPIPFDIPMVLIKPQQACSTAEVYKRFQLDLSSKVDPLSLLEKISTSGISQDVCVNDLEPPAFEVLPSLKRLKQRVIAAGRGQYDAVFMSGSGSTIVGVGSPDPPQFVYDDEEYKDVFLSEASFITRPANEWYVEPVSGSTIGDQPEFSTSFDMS

lettuce seeds = assay: Lettuce leaf assay; type: in vivo; design: key: 0 (no effect); 5(complete inhibition or bleaching); settings: ranking 0-5
Procedure, shortened: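 Qualitative assay: compounds in volatile organic solvent applied to filter paper in a petri dish, solvent evaporated, lettuce seeds and 5 mL water added to give test concentrations. Germination, root development and leaf bleaching scored days 3 and 4, ranked 0 (no effect) to 5 (complete inhibition or bleaching).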

AtIspD = AtIspD (Arabidopsis thaliana, UniProt P69834); assay: University of Hamburg photometric enzymatic inhibition assay AtIspD; type: biochemical; settings: read-out: AtIspD IC50
Sequence of AtIspD (P69834 62-302): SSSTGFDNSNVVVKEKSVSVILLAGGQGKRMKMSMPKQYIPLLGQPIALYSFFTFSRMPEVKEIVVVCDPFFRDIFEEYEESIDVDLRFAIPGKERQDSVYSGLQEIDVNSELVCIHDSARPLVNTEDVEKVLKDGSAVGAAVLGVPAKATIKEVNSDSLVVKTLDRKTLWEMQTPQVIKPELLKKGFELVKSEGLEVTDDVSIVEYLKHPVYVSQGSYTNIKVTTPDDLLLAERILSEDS
Procedure, shortened: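 Coupled photometric assay: 2.4 mU AtIspD with 1 mM (2R,3S)-2,3-dihydroxy-4-oxopentyl phosphate, 2.1 mM CTP, excess IspE (0.4 U), ATP, pyruvate kinase/lactate dehydrogenase and 460 μM NADH. Run in 100 mM Tris-HCl pH 8.0, 10 mM MgCl2, 1 mM DTT, 1.1% DMSO at 27 °C, monitored photometrically.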

LeIspE = LeIspE (Solanum lycopersicum, UniProt P93841); assay: University of Hamburg photometric enzymatic inhibition assay LeIspE; type: biochemical, Lycopersicon esculentum; settings: read-out: LeIspE IC50
Sequence of LeIspE (P93841 89-401): as the sequence (P93841 89-401) above
Procedure, shortened: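 Photometric coupled assay with pyruvate kinase/lactate dehydrogenase following NADH (460 μM). Mix: 100 mM Tris-HCl pH 8.0, 10 mM MgCl2, 1 mM DTT, 2.5 mM phosphoenolpyruvate, 2 mM ATP, 1 mM 4-diphosphocytidyl-2-C-methylerythritol, 1.1% DMSO, 2.4 mU IspE; incubated at 27° C.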

AtIspF = AtIspF (Arabidopsis thaliana, UniProt Q9CAK8); assay: University of Hamburg photometric enzymatic inhibition assay AtIspF; type: biochemical; settings: read-out: AtIspF IC50
Sequence of AtIspF (Q9CAK8 53-231): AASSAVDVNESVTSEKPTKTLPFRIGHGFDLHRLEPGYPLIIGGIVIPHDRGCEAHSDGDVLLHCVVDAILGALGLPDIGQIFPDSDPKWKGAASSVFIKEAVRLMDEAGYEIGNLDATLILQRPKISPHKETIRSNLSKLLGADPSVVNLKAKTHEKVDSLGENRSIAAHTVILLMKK
Procedure, shortened: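 Coupled photometric assay (CMP kinase/pyruvate kinase/lactate dehydrogenase, NADH consumption) with 2.4 mU AtIspF and 1 mM 4-diphosphocytidyl-2C-methylerythritol 2-phosphate, 2 mM ATP, in 100 mM Tris-HCl pH 8.0, 10 mM MgCl2, 1.1% DMSO. Monitored at 27 °C.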

[3] = system: Burkholderia thailandensis; type: cell-based; settings: preliminary screening, score 0-3
Mycobacterium smegmatis = assay: Antibacterial preliminary screening MS; type: cell-based; settings: score 0-3; note: key: 0 represents no inhibition; 3 is comparable to commercial antibiotic control
Corynebacterium xerosis = assay: Antibacterial preliminary screening CX; type: cell-based; settings: score 0-3; note: key: 0 represents no inhibition; 3 is comparable to commercial antibiotic control
[4] = system: Corynebacterium pseudodiphtheriae; assay: Antibacterial preliminary screening CP; type: cell-based; settings: score 0-3;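 note: 0 is no inhibition and 3 matches the commercial antibiotic control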
Escherichia coli = assay: Antibacterial preliminary screening EC; type: cell-based; settings: score 0-3; note: key: 0 represents no inhibition; 3 is comparable to commercial antibiotic control
Klebsiella pneumonia = assay: Antibacterial preliminary screening KP; type: cell-based; settings: score 0-3; note: key: 0 represents no inhibition; 3 is comparable to commercial antibiotic control
Micrococcus luteus = assay: Antibacterial preliminary screening ML; type: cell-based; settings: score 0-3; note: key: 0 represents no inhibition; 3 is comparable to commercial antibiotic control
Bacillus cereus = assay: Antibacterial preliminary screening BC; type: cell-based; settings: score 0-3; note: key: 0 represents no inhibition; 3 is comparable to commercial antibiotic control
Pseudomonas aeruginosa = assay: Antibacterial preliminary screening PA; type: cell-based; settings: for PA score: score 0-3

Sequence of Ec IspD (Q46893 whole entry): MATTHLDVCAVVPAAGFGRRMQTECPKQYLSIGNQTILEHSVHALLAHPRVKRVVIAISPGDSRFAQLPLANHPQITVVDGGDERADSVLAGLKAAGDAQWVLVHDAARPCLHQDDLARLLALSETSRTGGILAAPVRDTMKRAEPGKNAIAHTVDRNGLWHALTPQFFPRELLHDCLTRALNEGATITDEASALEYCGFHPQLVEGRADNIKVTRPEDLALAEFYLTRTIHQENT

Structure (SMILES)	MtIspD melting point change [1]	MtIspD melting temp [1]	LeIspE melting point change [2]	LeIspE melting temp [2]	IC50 (AtIspD)	IC50 (LeIspE)	IC50 (AtIspF)	BT score [3]	MS score (Mycobacterium smegmatis)	CX score (Corynebacterium xerosis)	CP score [4]	EC score (Escherichia coli)	KP score (Klebsiella pneumonia)	ML score (Micrococcus luteus)	BC score (Bacillus cereus)	PA score (Pseudomonas aeruginosa)	melting point	also measured
C[CH2][Hg][Cl] [ethyl mercuric chloride]																		effect on thermal stability of Ec IspD (Ec IspD): affected the stability of the enzyme
[O-][n+]1ccccc1[S][Zn][S]c1cccc[n+]1[O-] [Zinc Pyrathione]																		change in the observed melting temperature of Ec IspD (Ec IspD; MicroSource Spectrum screening): −7.72 °C
c1ccc(Cc2nnc(-c3cc4ccccc4[nH]3)o2)cc1 [HGN-221, 2-benzyl-5-(1H-indol-2-yl)-1,3,4-oxadiazole]	0.5 °C	48.5 °C	0.00 °C	49.50 °C	636 ± 68 µM	> 1000 µM	> 1000 µM	0	0	0	0	0	0	0	0	0	211 to 215 °C	Bleaching (lettuce seeds; 0.15 mM): 0; Germination (lettuce seeds; 0.15 mM): 0; Root Dev. (lettuce seeds; 0.15 mM): 0; Bleaching (lettuce seeds; 0.3 mM): 0; Germination (lettuce seeds; 0.3 mM): 0; Root Dev. (lettuce seeds; 0.3 mM): 0
CC(C)c1nnc(-c2cc3ccccc3[nH]2)o1 [HGN-240, 2-(1H-indol-2-yl)-5-isopropyl-1,3,4-oxadiazole]	0.8 °C	48.8 °C	−1.50 °C	48.00 °C	> 1000 µM	> 1000 µM	> 1000 µM	0	0	0	0	0	0	0	0	0	164 to 170 °C	Bleaching (lettuce seeds; 0.5 mM): 0; Germination (lettuce seeds; 0.5 mM): 1; Root Dev. (lettuce seeds; 0.5 mM): 0; Bleaching (lettuce seeds; 1.0 mM): 0; Germination (lettuce seeds; 1.0 mM): 2; Root Dev. (lettuce seeds; 1.0 mM): 0
C(=C\c1nnc(-c2nc3ccccc3s2)o1)/c1ccccc1 [HGN-335, (E)-2-(benzo[d]thiazol-2-yl)-5-styryl-1,3,4-oxadiazole]	0.5 °C	48.5 °C	−1.50 °C	48.00 °C	> 500 µM	> 500 µM	> 500 µM	0	0	0	0	0	0	0	0	1	202 to 204 °C	Bleaching (lettuce seeds; 0.1 mM): 0; Germination (lettuce seeds; 0.1 mM): 0; Root Dev. (lettuce seeds; 0.1 mM): 0; Bleaching (lettuce seeds; 0.2 mM): 0; Germination (lettuce seeds; 0.2 mM): 0; Root Dev. (lettuce seeds; 0.2 mM): 0; effectiveness against Pseudomonas aeruginosa (Pseudomonas aeruginosa): slightly effective
c1ccc2[nH]c(-c3nnc(C4CCCCC4)o3)cc2c1 [HGN-254, 2-cyclohexyl-5-(1H-indol-2-yl)-1,3,4-oxadiazole]	0.5 °C	48.5 °C	−2.00 °C	47.50 °C	322 µM	> 1000 µM	> 1000 µM	0	0	0	0	0	0	0	0	0	187 to 193 °C	Bleaching (lettuce seeds; 0.15 mM): 0; Germination (lettuce seeds; 0.15 mM): 0; Root Dev. (lettuce seeds; 0.15 mM): 0; Bleaching (lettuce seeds; 0.3 mM): 0; Germination (lettuce seeds; 0.3 mM): 0; Root Dev. (lettuce seeds; 0.3 mM): 0
CC(C)(C)c1nnc(-c2cc3ccccc3[nH]2)o1 [HGN-239, 2-(tert-butyl)-5-(1H-indol-2-yl)-1,3,4-oxadiazole]		49.5 °C	−2.50 °C	47.00 °C	> 1000 µM	> 1000 µM	> 1000 µM	0	0	0	0	0	0	0	0	0	163 to 168 °C	Bleaching (lettuce seeds; 0.5 mM): 0; Germination (lettuce seeds; 0.5 mM): 0; Root Dev. (lettuce seeds; 0.5 mM): 0; Bleaching (lettuce seeds; 1.0 mM): 0; Germination (lettuce seeds; 1.0 mM): 1; Root Dev. (lettuce seeds; 1.0 mM): 0
Clc1cccc(-c2nnc(-c3cc4ccccc4[nH]3)o2)c1 [HGN-241, 2-(3-chlorophenyl)-5-(1H-indol-2-yl)-1,3,4-oxadiazole]	0.5 °C	48.5 °C	−1.75 °C	47.75 °C	> 1000 µM	149 ± 41 µM	> 1000 µM	0	0	0	0	0	0	0	0	0	202 to 207 °C	Bleaching (lettuce seeds; 0.2 mM): 0; Germination (lettuce seeds; 0.2 mM): 1; Root Dev. (lettuce seeds; 0.2 mM): 0
